# Where a SMILES comes first, the peptide text is derived from it.
# Key:
# [1] = Isothermal titration calorimetry (microcalorimetry) of L with chloride; assay type: binding; details: acetonitrile, 25.0 °C, measurements repeated three times
# Protocol: Microcalorimetric measurements were conducted with an isothermal titration calorimeter Microcal VP-ITC at 25.0 °C. Thermograms were processed using the Microcal OriginPro 7.0 program (OriginLab Corporation, Northampton, MA, USA).
# In the calorimetric studies of chloride complexation by L, the enthalpy changes were recorded upon stepwise additions of salt solution into the solution of cyclopeptide ligand (V0 = 1.4 cm^3). The heats measured in the titration experiments were corrected for the heats of titrant dilution obtained by blank experiments. The dependence of successive enthalpy changes on the titrant volume was processed by non-linear least-squares fitting procedure using OriginPro 7.5 program (OriginLab Corporation, Northampton, MA, USA). Measurements were repeated three times.
# [2] = Solubility determination of L (saturated solutions, spectrophotometric); assay type: physicochemical
# Protocol: Saturated solutions of L in acetonitrile and methanol were prepared by adding an excess amount of the solid substance to the solvent. The obtained mixtures were left in a thermostat at 25 °C for several days in order to equilibrate. The concentrations of saturated solutions were determined at 25.0 °C spectrophotometrically by means of a Varian Cary 5000 spectrophotometer equipped with a thermostatting device. Calibration curves were obtained by measuring the absorbances of solutions of known concentrations.
# [3] = Comparison of stability constants in methanol and acetonitrile, chloride; assay type: binding; details: 25 °C
# Protocol: (§1) Fluorimetric titrations were conducted on Varian Cary Eclipse Fluorimeter, UV-Vis spectra were recorded by Agilent Cary 5000 spectrophotometer, and CD spectra were recorded on JASCO J815 spectrophotometer. Fluorimeter and UV-Vis spectrophotometer were connected to thermostating device, whereas CD titrations were performed at room temperature. The excitation wavelength used in all fluorimetric titrations was 260 nm, spectra were recorded at 2 nm interval with 0.4 s integration time, 10 nm excitation, and emission slits were used. In titrations with iodide, the obtained spectra were corrected by the anion concentration dependent solvent emission spectra. […] CD spectra were recorded in the 200–300 nm wavelength range with a 0.2 nm data pitch and scanning speed of 200 nm/min; 2 scans were accumulated for each spectrum. […]
# ^1H NMR titrations were carried out at 25 °C by means of a Bruker Avance III HD 400 MHz with a solvent signal used as a standard. […] Spectra were recorded at 16 pulses. ^1H NMR spectra were processed and visualized by means of MestReNova 6.1 software (Mestrelab Research, Santiago de Compostela, Spain). Stability constants of the corresponding complexes were determined from the obtained ^1H NMR spectra by using multivariate analysis implemented in HypNMR 4.0 software (Protonic Software, Leeds, UK) included in the Hyperquad program package. […]
# [4] = Comparison of stability constants in methanol and acetonitrile, bromide; assay type: binding; details: 25 °C
# Protocol: as §1
# ^1H NMR titrations were carried out at 25 °C by means of a Bruker Avance III HD 400 MHz with a solvent signal used as a standard. […] Spectra were recorded at 16 pulses. ^1H NMR spectra were processed and visualized by means of MestReNova 6.1 software (Mestrelab Research, Santiago de Compostela, Spain). Stability constants of the corresponding complexes were determined from the obtained ^1H NMR spectra by using multivariate analysis implemented in HypNMR 4.0 software (Protonic Software, Leeds, UK) included in the Hyperquad program package.
# [5] = cited from earlier work
# Source text: The reaction enthalpy (−15 kJ mol^−1) and entropy (65 J mol^−1 K^−1) for L-Cl complex formation are close to the corresponding values for complexation of chloride with cyclopentaleucine (∆rH = −11 kJ mol^−1, ∆rS = 76 J mol^−1 K^−1). Therefore, the inclusion of fluorescent groups to the cyclopeptide sidechain improved the anion detection capability ...
Compound,Reaction enthalpy for L-Cl complex formation [1] [kcal/mol],Reaction entropy for L-Cl complex formation [1] [J mol^−1 K^−1],"Transfer Gibbs energy of L (MeCN→MeOH) ([2]; determined from ligand solubilities in acetonitrile and methanol, 25 °C)","Solubility of free L in acetonitrile ([2]; thermodynamic, excess solid in acetonitrile, equilibrated several days at 25 °C, saturated solution measured spectrophotometrically (UV) at 25.0 °C with calibration curve)","Solubility of free L in methanol ([2]; thermodynamic, excess solid in methanol, equilibrated several days at 25 °C, saturated solution measured spectrophotometrically (UV) at 25.0 °C with calibration curve)","Decrease in stability constant in methanol compared to acetonitrile, in the log K value [3]","Decrease in stability constant in methanol compared to acetonitrile, in the log K value [4]",∆rH for complexation of chloride with cyclopentaleucine [5] [kcal/mol],∆rS for complexation of chloride with cyclopentaleucine [5] [J mol^−1 K^−1]
"O=C1N[C@@H](Cc2ccccc2)C(=O)N[C@@H](Cc2ccccc2)C(=O)N[C@@H](Cc2ccccc2)C(=O)N[C@@H](Cc2ccccc2)C(=O)N[C@H]1Cc1ccccc1 [L, cyclopentaphenylalanine] (cyclo(FFFFF))",-3.59,65,negligible,(2.72 ± 0.02) × 10^−3 mol dm^−3,(2.81 ± 0.03) × 10^−3 mol dm^−3,about 4.5,~3.5,,
cyclopentaleucine,,,,,,,,-2.63,76
